Reference: patent US11738030B2, “Treatments for disturbed cerebral homeostasis” (Aneuryst, Inc., priority 2021, dated 2023)
Structures can show the parent of a compound that is named as a salt. Where two headings read alike, the source gives them in different places.

Tests used:
[1] = test system: adult male Sprague-Dawley rats; assay: Brain water content after endovascular perforation in rats; type: in vivo, rat; conditions: one treatment, 24 h
Description: A sharpened 4-0 nylon suture was introduced into the left internal carotid artery of 92 adult male Sprague-Dawley rats weighing […]. In 65 of the 92 rats, the bifurcation of the anterior and middle cerebral arteries was endovascularly perforated; in the remaining 27 rats, the suture was withdrawn without perforation.
At 0.5 hours after the procedure, 34 of the 65 perforated rats were administered 1.5 ml of 0.9% saline (vehicle group), and the remaining 31 were administered 10 mg/kg hydroxyfasudil dissolved in 1.5 ml of 0.9% saline (hydroxyfasudil group). The 27 unperforated rats received neither vehicle nor […] (sham group).
24 hours after the procedure, all rats were sacrificed. The animals' brains were removed and separated into left hemisphere, right hemisphere, cerebellum and brain stem. Each part was weighed immediately after removal (wet weight) and after drying in 100° C. for 72 h (dry weight). The percentage of water content was calculated as [(wet weight−dry weight)/wet weight]×100%.

[2] = test system: adult male Sprague-Dawley rats; conditions: cited from earlier work; for Mean percentage of brain water content, Cerebellum / Mean percentage of brain water content, Left Hemisphere / Mean percentage of brain water content, Right Hemisphere: 24 hrs post-surgery
[3] = test system: adult male Sprague-Dawley rats; conditions: cited from earlier work; for Garcia neurological score: SAH + HF
[4] = Intraparenchymal ICP measurement in adult patient with suspected bacterial meningitis; type: in vivo; conditions: 60 mg intravenous infusion; adult patient with ICP>20 mmHg and suspected bacterial meningitis
Description: In an adult patient with an ICP>20 mmHg and suspected bacterial meningitis as determined by lumbar puncture, one would administer by intravenous infusion 60 mg fasudil hydrochloride. One would place an intraparenchymal device to measure ICP in the patient.

[5] = one treatment, 10 mg/kg at 0.5 h after perforation, 10 mg/kg
[6] = one treatment, 10 mg/kg at 0.5 h after perforation, listed as HF, 10 mg/kg
[7] = two treatments instead of one, and measurements at 72 hours after perforation

## O=c1[nH]ccc2c(S(=O)(=O)N3CCCNCC3)cccc12 [hydroxyfasudil]
[1]; vehicle increase 0.5%
  Increase in water content versus sham group, right hemisphere: about 0.25%
[1]; vehicle increase 0.6%
  Increase in water content versus sham group, cerebellum: about 0.2%
[1]; vehicle increase 0.7%
  Increase in water content versus sham group, left hemisphere: about 0.3%
[1]; versus vehicle, p<0.01
  Improvement in water content increase, left hemisphere: about 57%
  Improvement in water content increase, right hemisphere: about 70%
[1]; versus vehicle, p<0.05
  Improvement in water content increase, cerebellum: about 67%
[2]; [5]
  Mean percentage of brain water content, Cerebellum: ~78.7%
  Mean percentage of brain water content, Left Hemisphere: ~79.3%
  Mean percentage of brain water content, Right Hemisphere: ~79.25%
[2]; [6]
  Mean percentage of brain water content, Cerebellum: 78.7%
  Mean percentage of brain water content, Left Hemisphere: 79.3%
  Mean percentage of brain water content, Right Hemisphere: 79.35%
[2]; [7]
  Difference in brain water content between vehicle group and hydroxyfasudil group: failed to demonstrate any significant differences
[2]; two treatments
  Mean percentage of brain water content, Cerebellum: 78.84%
  Mean percentage of brain water content, Left Hemisphere: 79.3%
  Mean percentage of brain water content, Right Hemisphere: 79.25%
[3]; 1 treatment, 24 hrs, score out of 18
  Garcia neurological score: 14
[3]; 1 treatment, 72 hrs
  Garcia neurological score: 14
[3]; 2 treatments, 24 hrs
  Garcia neurological score: 15.5
[3]; [7]
  Difference in neurological performance between vehicle group and hydroxyfasudil group: failed to demonstrate any significant differences

## O=S(=O)(c1cccc2cnccc12)N1CCCNCC1 [fasudil hydrochloride]
[4]
  ICP upon fasudil infusion: reduction of ICP
